{"source": "patent US20240101563A1", "about": "“NOVEL COMPOUNDS” (AC Immune SA, priority 2022, published 2024)", "key": {"[1]": {"tested_on": "NLRP3 inflammasome pathway", "assay": "NLRP3 inflammasome pathway activation assay, MSU stimulation, IL-1β HTRF", "type": "cell-based", "details": "Homo sapiens, 3 h, Table 7; PMA-differentiated, LPS-primed cells; MSU 200 μg/mL for 3 h; IL-1β release; read-out: IC50 Human monocyte-like cells MSU", "summary_of_the_method": "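Human monocyte-like cells differentiated overnight with 10 ng/mL PMA, primed 3 h with 10 ng/mL LPS, given compound ([…]) 30 min before 3 h stimulation with Nigericin 3.75 μM or MSU 200 μg/mL. Supernatant IL-1β quantified by HTRF; IC50 at 50% inhibition.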"}, "IL-1β": {"tested_on": "IL-1β", "assay": "Inhibition of IL-1β in an LPS/ATP induced acute peritonitis mouse model", "type": "in vivo", "details": "BALB/c mice; dosed 30 min before LPS i.p.; ATP i.p. 120 min after LPS; PW 30 min post ATP; vs LPS-ATP, 0 mg/kg", "experimental": "1.2.1 The efficacy of Example compounds 53 and 18 in an LPS/ATP-induced acute peritonitis was evaluated: LPS (Lipopolysaccharide) and ATP (Adenosine triphosphate) were administered to BALB/c mice by intraperitoneal (i.p.) injection to elicit an acute inflammatory response in the peritoneal cavity.\nMice (BALB/c mice, aged 6-8 w, females) were challenged with 50 μg/kg LPS by intraperitoneal (i.p.) injection. 120 min after LPS administration, ATP was delivered by i.p. injection at 50 mM in 200 μL. […]\nCytometric Bead Array (CBA) Assay for IL-1β detection was performed on the peritoneal wash supernatant as follows: supernatants or cytokine standards were incubated with the capture beads mixture for 1 hour at room temperature. […] After washing in Wash Buffer containing 1×PBS, blocking protein, and detergent, the beads were re-suspended and analyzed by flow cytometry.\nThe cytokine analysis raw data were analyzed using FACP. […] Data were expressed as the Mean±SD. […]"}, "[2]": {"tested_on": "NLRP3 inflammasome pathway", "assay": "NLRP3 inflammasome pathway activation assay, Nigericin stimulation, IL-1β HTRF", "type": "cell-based", "details": "Homo sapiens, 3 h, Table 7; PMA-differentiated, LPS-primed cells; Nigericin 3.75 μM for 3 h; IL-1β release; read-out: IC50 Human monocyte-like cells Nigericin", "experimental": "The following assays were used to determine the inhibitory activity of test compounds on the NLRP3 inflammasome pathway using common stimuli Nigericin (Invivogen) or monosodium urate crystals (MSU) (Invivogen).\nHuman monocyte-like cells were cultured in RPMI-1640 Glutamax medium supplemented with 10% heat inactivated FBS (Fetal Bovine Serum) and 50 U/mL penicillin-streptomycin (Life Technologies).\nHuman monocyte-like cells were seeded at 25000 per well in a 384-well plate and were differentiated overnight into macrophages with 10 ng/mL PMA (Phorbol Myristate Acetate). The following day, medium containing 10 ng/mL LPS (Lipopolysaccharide) was added. After 3 hours of LPS priming, concentrations of test compound in the range from […] were added 30 min prior to NLRP3 inflammasome pathway stimulation with Nigericin 3.75 μM or MSU 200 μg/mL for 3 h.\nFor IL-1p quantification, supernatants were analyzed using HTRF kit according to the manufacturer's instructions (Cisbio 62HIL1BPEH). Briefly, in a 384-well ProxiPlate™ microplate, 8 μl of sample was mixed, with 5 μl of Anti-IL1β Cryptate antibody (40×) and Anti-IL1β XL antibody (40×). Then, incubated overnight at RT. Reading was done using an EnVision Reader (PerkinElmer).\nIC50 (concentration corresponding to 50% inhibition) were determined using GraphPad Prism 9."}}}
{"smiles": "Cc1cc(C(F)(F)F)cc(O)c1-c1nc2nc(OC3CCN(C)C3)cnc2n1C", "note": "(single isomer, unassigned) [Example 53, 3-methyl-2-(1-methyl-5-((1-methylpyrrolidin-3-yl)oxy)-1H-imidazo[4,5-b]pyrazin-2-yl)-5-(trifluoromethyl)phenol]", "values": [{"measurement": "IC50", "setting": "[1]", "result": "< 100", "unit": "nM"}, {"measurement": "IL-1β release in peritoneal wash (PW)", "setting": "IL-1β", "result": "significantly reduced IL-1β release in PW in a dose response manner"}]}
{"smiles": "Cc1cc(C(F)(F)F)cc(O)c1-c1nc2nc(NC3CCN(C)C3)ccc2n1C", "note": "(racemic) [Example 18, 3-methyl-2-(1-methyl-5-((1-methylpyrrolidin-3-yl)amino)-1H-imidazo[4,5-b]pyridin-2-yl)-5-(trifluoromethyl)phenol]", "values": [{"measurement": "IL-1β release in peritoneal wash (PW)", "setting": "IL-1β", "result": "significantly reduced IL-1p release in PW in a dose response manner"}]}
{"smiles": "CCn1c(-c2c(C)cc(C(F)(F)F)cc2O)nc2nc(OCCO)ccc21", "note": "[Example 32, 2-(1-ethyl-5-(2-hydroxyethoxy)-1H-imidazo[4,5-b]pyridin-2-yl)-3-methyl-5-(trifluoromethyl)phenol]", "values": [{"measurement": "IC50", "setting": "[1]", "result": "< 100", "unit": "nM"}, {"measurement": "IC50", "setting": "[2]", "result": "100 to 1000", "unit": "nM"}]}
{"smiles": "Cc1cc(C(F)(F)F)cc(O)c1-c1nc2nc(O[C@@H]3CCCN(C)C3)ccc2n1C", "note": "[Example 26, (R)-3-methyl-2-(1-methyl-5-((1-methylpiperidin-3-yl)oxy)-1H-imidazo[4,5-b]pyridin-2-yl)-5-(trifluoromethyl)phenol]", "values": [{"measurement": "IC50", "setting": "[1]", "result": "< 100", "unit": "nM"}, {"measurement": "IC50", "setting": "[2]", "result": "100 to 1000", "unit": "nM"}]}
{"smiles": "CCn1c(-c2ccc(C(F)(F)F)cc2O)nc2nc(NC3CCN(C)C3)ccc21", "note": "(single isomer, unassigned) [Example 9, 2-(1-ethyl-5-((1-methylpyrrolidin-3-yl)amino)-1H-imidazo[4,5-b]pyridin-2-yl)-5-(trifluoromethyl)phenol]", "values": [{"measurement": "IC50", "setting": "[1]", "result": "< 100", "unit": "nM"}, {"measurement": "IC50", "setting": "[2]", "result": "100 to 1000", "unit": "nM"}]}
{"smiles": "CN1CCC[C@@H](Oc2ccc3c(n2)nc(-c2ccc(C(F)(F)F)cc2O)n3C)C1", "note": "[Example 25, (R)-2-(1-methyl-5-((1-methylpiperidin-3-yl)oxy)-1H-imidazo[4,5-b]pyridin-2-yl)-5-(trifluoromethyl)phenol]", "values": [{"measurement": "IC50", "setting": "[1]", "result": "< 100", "unit": "nM"}, {"measurement": "IC50", "setting": "[2]", "result": "100 to 1000", "unit": "nM"}]}
